From patent publication US10844054B2, “Compounds for pain treatment, compositions comprising same, and methods of using same” (CERSCI THERAPEUTICS, INC., priority 2018, dated 2020)
Like-named read-outs stand apart in the source and are kept apart here.

Experiments:
[1] = Inhibition of SIN1-mediated peroxynitrite oxidation of luminol (L-012 assay); format: biochemical; conditions: for Peroxynitrite gen (% control, 10 μM): compound at 10 μM, SIN-1 100 μM, L-012, PBS pH 8.5
Method: Luminol-like compounds such as L-012 are chemilumescent probes that are oxidized by the presence of ROS and RNS such as peroxynitrite. In this assay L-012 is oxidized by the addition of 3-morpholino-sydnonimine (SIN-1), a known peroxynitrite generator. The emitted luminescence is directly proportional to the concentration of SIN-1. The compounds were assessed for their ability to neutralize/scavenge/decompose peroxynitrite by blocking the increase of peroxynitrite induced chemilumescence. Concentrations of compound producing 50% inhibition of the luminescence signal (IC50 values) were calculated by testing the compounds at various concentrations of two parallel measurements.
Stock solution (10 mM) of compounds were prepared in 100% DMSO.
The following solutions were added to white polystyrene, non-sterile 96-well plate (Thermo Scientifi NUNC™ 96 MICROWELL™ White Polystyrene Plates #447796): • 10 μL SIN-1 2 mM in 100% DMSO solution (SIN-1 final concentration 100 DMSO final volume—5%); • 190 μL L012+/−test compound in phosphate-buffered solution (PBS, pH=8.5) (L012 final concentration 100 μM).
Luminescence signal was recorded by Hidex Sense multimodal microplate reader (Hidex) at 30° C. for 30 min, with a measurement every 60 sec and an integration time of 1 sec.
IC50 values were calculated using two different methods; first by measuring the slopes of the steepest linear portion of the kinetic profile during the first 5 min (as % from control) and secondly, by measuring the maximal luminiscence at 30 min time point (as % from control). IC50 values of the tested compounds were calculated using GraphPad Prism 5.0 software package.

[2] = tested on: nerve injury induced tactile allodynia; assay: Rat spinal nerve ligation (SNL) model, tactile allodynia (von Frey); format: in vivo; conditions: 100 mg/kg i.p.
Method: The spinal nerve ligation (SNL) model of neuropathic pain in the rat results in behaviors similar to that observed in patients (Kim & Chung, 1992, Pain 50(3):355-63) and has been widely used to assess novel pharmacological treatments (Sindrup & Jensen, 1999, Pain 83(3):389-400). Compounds of the invention were evaluated for its ability to reverse or prevent development of tactile allodynia in a rat model of neuropathic pain.
The positive control was gabapentin (Toronto Research Chemicals, Canada). The negative control was vehicle (0.5% methyl cellulose; 2-hydroxy-propyl-beta-cyclodextrin). Male Sprague-Dawley Rats (Harlan, 11) were 250-300 g at time of dosing. […]
The effect of compounds of the invention on nerve injury induced tactile allodynia was investigated using von Frey filaments 1-3 weeks after tight ligation of the LS spinal nerve. Tactile thresholds were assessed using a series of calibrated von Frey monofilaments (Stoelting, Wood Dale, Ill.). Assessment of tactile allodynia was measured as the hind paw-withdrawal threshold that produced a 50% likelihood of a withdrawal using the up-down method. Thresholds were evaluated before surgery, and they were reassessed 1-3 weeks after SNL surgery. […] Tactile thresholds were again assessed either 1 and 3 h, 3 and 5 h or once weekly after administration. […]

[3] = tested on: latency to fall from rotarod; assay: Accelerating rotarod assay of ataxia; format: in vivo, rat; conditions: 3 mg/kg p.o., 1 h post-administration
Method: Ataxia is a common clinical problem with CNS-active compounds and can often confound interpretation of efficacy in preclinical pain models. The rotarod assay of ataxia has been widely used to assess the side-effect liability of novel pharmacological treatments (Jones & Roberts, 1968, J. Pharm. Pharmacol. 20:302-04).
The effect of compounds of the invention to impact latency to fall in an accelerating rotarod assay of ataxia in rats was evaluated. The positive control was haloperidol (Sigma, St. Louis), and the negative control was vehicle (which was hydroxypropylmethyl-cellulose and 15% DMA, 65% PEG300, and 20% D5W for haloperidol).
Male Sprague-Dawley Rats (Harlan, Ill.) were 250-300 g at time of dosing. Rotarod was obtained from IITC, CA. To examine the potential effects of compounds of the invention on motor performance, rats were tested on an accelerating rotarod (IITC, Ca). In this assay, rats were placed on the rotarod with the speed set to accelerate from 4 to 40 rpm over 300 sec. The maximum time spent on the rotarod was set at 300 seconds. Rats received two timed training trials (averaged to give the reported baseline) on the first day, then 24 h later rats were administered compound of the invention (30, 100 and 300 mg/kg, p.o.), haloperidol (3 mg/kg, p.o.) or vehicle.

[4] = tested on: carrageenan-induced thermal hyperalgesia and edema; assay: Intraplantar carrageenan model of acute inflammatory pain (Hargreaves test, paw volume); format: in vivo, rat; conditions: 30 mg/kg p.o., dosed preemptively, assessed 4 h post-carrageenan
Method: The intraplantar carrageenan model of acute inflammatory pain in the rat results in behaviors similar to that observed in patients and has been widely used to assess novel pharmacological treatments (Whiteside, et al., 2005, J. Pharmacol. Exp. Ther. 314:1234-1240).
For this assay, paw withdrawal latency to a thermal stimulus was assessed using a radiant heat source (Ugo Basile, Italy) aimed at the plantar surface of the left hind paw (Hargreaves test). A cut-off latency of 40 sec is set to avoid tissue damage. Paw volume was measured by displacement of water and assuming a tissue density equal to that of water. Baseline latencies were taken prior to carrageenan administration and re-assessed 4 h later. Compounds of the invention or vehicle were administered (10 and 30 mg/kg, p.o.) 3 h after carrageenan (curative) and behavior assessed 1 h later. Additionally, compounds of the invention were administered 15 minutes prior to carrageenan (preemptive) and behavior assessed 4 h post carrageenan. Indomethacin (positive control, 30 mg/kg p.o.) was administered prior to carrageenan and behavior assessed 4 h post-carrageenan.
Intraplantar injection of carrageenan was performed under 2.5-4.0% isoflurane/O2 anesthesia, delivered via nose cone. After induction of anesthesia, the injection site was prepared in a sterile manner and 50 μL of a 2% λ-carrageenan was injected. […]

[5] = from maximal luminescence at 30 min time point, read-out: IC50 (μM) (% luminol absorb. @ 30 min)
[6] = from slopes of steepest linear portion of kinetic profile during first 5 min, read-out: IC50 (μM) (% PN gen)

SMILES | Peroxynitrite gen (% control, 10 μM) [1] [% control] | IC50 [1, 5] [µM] | IC50 [1, 6] [µM] | reversal of tactile allodynia [2] | motor performance / latency to fall in rotarod [3] | prevention of carrageenan-induced edema (paw volume) [4] | prevention of carrageenan-induced thermal hyperalgesia [4]
CC1(C)SC(Nc2ncccc2O)=N[C@@H]1C(=O)O.Cl [Compound 4a, (R)-2-(3-Hydroxy-pyridin-2-ylamino)-5,5-dimethyl-4,5-dihydro-thiazole-4-carboxylic acid hydrochloride] | 0 | 1.8 | 0.26 |  |  |  | 
CC1(C)SC(Nc2ncccc2O)=N[C@H]1C(=O)O.Cl [Compound 5a, (S)-2-(3-Hydroxy-pyridin-2-ylamino)-5,5-dimethyl-4,5-dihydro-thiazole-4-carboxylic acid hydrochloride] | 0 | 1.6 | 0.17 |  |  |  | 
Cl.O=C(O)[C@@H]1CSC(Nc2ncccc2O)=N1 [Compound 7a, (R)-2-((3-hydroxypyridin-2-yl)amino)-4,5-dihydrothiazole-4-carboxylic acid hydrochloride] | 0 | 1.8 | 0.17 |  |  |  | 
Cl.O=C(O)[C@H]1CSC(Nc2ncccc2O)=N1 [Compound 8a, (S)-2-((3-hydroxypyridin-2-yl)amino)-4,5-dihydrothiazole-4-carboxylic acid hydrochloride] | 0 | 2.1 | 0.23 |  |  |  | 
CC1(C)SC(Nc2cnccc2O)=N[C@@H]1C(=O)O.Cl [Compound 12a, (R)-2-((4-Hydroxypyridin-3-yl)amino)-5,5-dimethyl-4,5-dihydrothiazole-4-carboxylic acid hydrochloride] | 82 | > 10 | > 10 |  |  |  | 
CC1(C)SC(Nc2ccncc2O)=N[C@@H]1C(=O)O.Cl [Compound 17a, (R)-2-((3-Hydroxypyridin-4-yl)amino)-5,5-dimethyl-4,5-dihydrothiazole-4-carboxylic acid hydrochloride] | 75 | > 10 | > 10 |  |  |  | 
CC1(C)SC(Nc2ccncc2O)=N[C@H]1C(=O)O.Cl [Compound 18a, (S)-2-((3-Hydroxypyridin-4-yl)amino)-5,5-dimethyl-4,5-dihydrothiazole-4-carboxylic acid hydrochloride] | 77 | > 10 | > 10 |  |  |  | 
CC1(C)SC(Nc2cccnc2O)=N[C@@H]1C(=O)O.Cl [Compound 22a, (R)-2-((2-Hydroxypyridin-3-yl)amino)-5,5-dimethyl-4,5-dihydrothiazole-4-carboxylic acid hydrochloride] | 96 | > 10 | > 10 |  |  |  | 
CC1(C)SC(Nc2cccnc2O)=N[C@H]1C(=O)O.Cl [Compound 23a, (S)-2-((2-Hydroxypyridin-3-yl)amino)-5,5-dimethyl-4,5-dihydrothiazole-4-carboxylic acid hydrochloride] | 67 | > 10 | > 10 |  |  |  | 
Cl.O=C(O)[C@@H]1CSC(Nc2cnccc2O)=N1 [Compound 25a, (R)-2-((4-Hydroxypyridin-3-yl)amino)-4,5-dihydrothiazole-4-carboxylic acid hydrochloride] | 111 | > 10 | > 10 |  |  |  | 
Cl.O=C(O)[C@@H]1CSC(Nc2ccncc2O)=N1 [Compound 27a, (R)-2-(3-Hydroxy-pyridin-4-ylamino)-4,5-dihydro-thiazole-4-carboxylic acid hydrochloride] | 61 | > 10 | > 10 |  |  |  | 
NCC1(CC(=O)O)CCCCC1 [gabapentin] |  |  |  | statistically significant reversal of allodynia |  |  | 
O=C(CCCN1CCC(O)(c2ccc(Cl)cc2)CC1)c1ccc(F)cc1 [haloperidol] |  |  |  |  | significant motor deficits |  | 
COc1ccc2c(c1)c(CC(=O)O)c(C)n2C(=O)c1ccc(Cl)cc1 [indomethacin] |  |  |  |  |  | statistically significant prevention | statistically significant prevention
